Where “and” joins values, the source holds several entries; their conditions need not be identical. Identical values can stand only once. Like-named read-outs stand apart in the source and are kept apart here. Marks after values point to notes of the source that are not given here.
Assays:
[1] = test system: subcutaneous pentylenetetrazole induced seizures; conditions: mice IP; cited from earlier work
[2] = test system: subcutaneous pentylenetetrazole induced seizures; conditions: rat PO; cited from earlier work
[3] = test system: subcutaneous pentylenetetrazole induced seizures; assay: Subcutaneous metrazole seizure; type: in vivo; conditions: rat IP, 50 mg/kg
[4] = test system: subcutaneous pentylenetetrazole induced seizures; assay: Subcutaneous metrazole seizure; type: in vivo, rat; conditions: for scMET, number protected/number tested: rat PO
[5] = test system: minimal muscular or neurological impairment (rotorod); assay: TOX, motor impairment by rotorod paradigm, mice IP; type: in vivo; conditions: 100mg/kg
kindled motor seizure = assay: Preliminary hippocampal kindling screen, rats IP; type: in vivo
[6] = test system: maximal electroshock induced seizures; assay: Maximal electroshock seizure; type: in vivo; conditions: mice IP, 100mg/kg
[7] = test system: minimal muscular or neurological impairment (gait); assay: TOX, abnormal uncoordinated gait, rat IP; type: in vivo
[8] = chronic dosing (5 days), data from NINDS; cited from earlier work
α1β3γ2 GABAA receptors = α1β3γ2 GABAA receptors (Homo sapiens, UniProt P14867+P18507); assay: Stimulation of GABA-induced currents in oocytes expressing GABAA receptors; conditions: concentration not given
[9] = test system: minimal muscular or neurological impairment (gait); assay: TOX, abnormal uncoordinated gait, rat PO; type: in vivo
[10] = test system: maximal electroshock induced seizures; assay: Maximal electroshock seizure; type: in vivo; conditions: rat PO, 30 mg/kg
[11] = test system: subcutaneous pentylenetetrazole induced seizures; assay: Subcutaneous metrazole seizure; type: in vivo, mice; conditions: 100mg/kg; for scMET, number protected/number tested: mice IP
seizures = assay: Antiseizure activity in mice dosed ip; type: in vivo; conditions: data not shown
[12] = rats IP, 30mg/kg, after 1h of dosing (kindling screen table)

Sequence of α1β3γ2 GABAA receptors (P14867 28-456): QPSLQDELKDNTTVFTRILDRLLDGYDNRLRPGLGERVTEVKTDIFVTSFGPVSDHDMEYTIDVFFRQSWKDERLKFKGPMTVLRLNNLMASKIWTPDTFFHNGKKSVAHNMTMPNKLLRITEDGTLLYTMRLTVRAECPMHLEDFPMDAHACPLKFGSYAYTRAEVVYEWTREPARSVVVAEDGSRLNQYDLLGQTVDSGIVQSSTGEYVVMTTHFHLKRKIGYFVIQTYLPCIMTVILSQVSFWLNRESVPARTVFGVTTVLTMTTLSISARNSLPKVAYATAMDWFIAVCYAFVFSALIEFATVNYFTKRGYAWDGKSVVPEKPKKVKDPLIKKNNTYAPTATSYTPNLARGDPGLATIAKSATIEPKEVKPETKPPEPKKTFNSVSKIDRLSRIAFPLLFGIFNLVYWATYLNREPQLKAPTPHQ
Sequence of α1β3γ2 GABAA receptors (P28472 26-473 partner): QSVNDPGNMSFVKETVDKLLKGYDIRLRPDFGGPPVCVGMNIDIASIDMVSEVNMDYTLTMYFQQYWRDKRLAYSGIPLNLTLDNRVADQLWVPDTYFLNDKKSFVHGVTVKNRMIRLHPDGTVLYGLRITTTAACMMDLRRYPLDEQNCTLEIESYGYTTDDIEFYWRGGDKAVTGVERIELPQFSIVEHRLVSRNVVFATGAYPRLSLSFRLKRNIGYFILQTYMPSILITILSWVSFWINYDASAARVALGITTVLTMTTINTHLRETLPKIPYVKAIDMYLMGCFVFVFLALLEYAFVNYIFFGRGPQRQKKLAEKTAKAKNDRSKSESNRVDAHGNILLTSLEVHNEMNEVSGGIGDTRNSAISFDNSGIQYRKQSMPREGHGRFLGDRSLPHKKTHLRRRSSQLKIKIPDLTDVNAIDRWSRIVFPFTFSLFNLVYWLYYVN
Sequence of α1β3γ2 GABAA receptors (P18507 40-475): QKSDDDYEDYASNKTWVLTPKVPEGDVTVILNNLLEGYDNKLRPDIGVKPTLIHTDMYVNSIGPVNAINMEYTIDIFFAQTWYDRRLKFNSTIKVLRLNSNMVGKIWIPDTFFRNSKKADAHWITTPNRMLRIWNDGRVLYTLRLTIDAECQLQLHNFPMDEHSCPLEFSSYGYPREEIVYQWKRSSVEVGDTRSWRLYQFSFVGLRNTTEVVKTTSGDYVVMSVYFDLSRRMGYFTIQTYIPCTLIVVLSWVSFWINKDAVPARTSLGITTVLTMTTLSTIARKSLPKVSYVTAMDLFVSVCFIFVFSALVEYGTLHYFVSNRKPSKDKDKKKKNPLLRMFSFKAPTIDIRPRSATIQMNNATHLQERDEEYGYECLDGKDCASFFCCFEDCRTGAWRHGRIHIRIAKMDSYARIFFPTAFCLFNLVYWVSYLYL

| SMILES | ED50 scMET [1] | scMET, number protected/number tested ([3]; 0.5 h) | scMET, number protected/number tested ([4]; 50 mg/kg, 0.5 h) | scMET, number protected/number tested ([4]; 50 mg/kg, 4.0 h) | TOX, number toxic/number tested ([7]; rat IP, 0.5 h) | TOX, number toxic/number tested [7, 12] | efficacy at α1 (α1β3γ2 GABAA receptors) | TOX, number toxic/number tested ([9]; 0.5 h) | TOX, number toxic/number tested ([9]; 4.0 h) | MES, number protected/number tested ([10]; 0.5 h) | MES, number protected/number tested ([10]; 4.0 h) | scMET, number protected/number tested ([3]; 4.0 h) | TOX, number toxic/number tested ([7]; rat IP, 4.0 h) | further results |
| --- | --- | --- | --- | --- | --- | --- | --- | --- | --- | --- | --- | --- | --- | --- |
| NC(=O)N1c2ccccc2C=Cc2ccccc21 [Carbamazepine] | >50 mg/kg |  |  |  |  |  |  |  |  |  |  |  |  |  |
| O=C1NC(=O)C(c2ccccc2)(c2ccccc2)N1 [Phenytoin] | >50 mg/kg |  |  |  |  |  |  |  |  |  |  |  |  | ED50 scMET [2]: >500 mg/kg |
| C#Cc1ccc2c(c1)C(c1ccccn1)=NCc1c(C(=O)OCC)ncn1-2 [compound 2] |  | 7/8 | 4/4 | 0/4 | 0/8 | 0/2 ^e | 233% | 0/4 | 0/4 | 1/4 | 0/4 |  |  | protection (scMET) ([4]; rats, po dosing, after four hours): no protection; TOX, number toxic/number tested ([5]; 0.5 h): no motor impairment and 0/8; TOX, number toxic/number tested ([5]; 4.0 h): 0/4; Seizure Score, Drug L - H (kindled motor seizure; 100mg/kg, pre-drug 4 5): 3; MES, number protected/number tested ([6]; 0.5 h): 0/3; MES, number protected/number tested ([6]; 4.0 h): 0/3; TOX, number toxic/number tested ([7]; rat IP, after 1 h of dosing (footnote d, row 4.0 h)): 0/8 ^d; tolerance to the anticonvulsant effects [8]: did not develop; scMET, number protected/number tested ([11]; 0.5 h): 3/5; scMET, number protected/number tested ([11]; 4.0 h): absent and 0/1; mice with raised scMET seizure threshold ([11]; mice ip, 0.5 h): 60% |
| C#Cc1ccc2c(c1)C(c1ccccc1F)=NCc1c(C(=O)OCC)ncn1-2 [compound 3] |  | 3/4 | 3/4 | 4/4 | 0/4 | 0/2 ^e | 282% | 0/4 | 0/4 | 0/4 | 1/4 | 3/4 | 0/4 | Seizure Score, Drug L - H (kindled motor seizure; 50mg/kg, pre-drug 5): 3 |
| C#Cc1ccc2c(c1)C(c1ccccc1Cl)=NCc1nnc(C)n1-2 [compound 4] |  |  | 4/4 | 3/4 |  |  |  | 0/4 | 0/4 | 0/4 | 0/4 |  |  | scMET, number protected/number tested ([4]; 15 mg/kg, 0.5 h): 3/4; scMET, number protected/number tested ([4]; 15 mg/kg, 4.0 h): 2/4; Seizure Score, Drug L - H (kindled motor seizure; 10mg/kg, pre-drug 5): 3; TOX, number toxic/number tested ([7]; rats IP, 3mg/kg, after 1h of dosing (kindling screen table)): 0/2 ^f |
| CCOC(=O)c1ncn2c1CN=C(c1ccccc1F)c1cc(I)ccc1-2 [compound 5] |  | 1/4 | 2/6 |  | 0/4 |  |  | 0/6 |  |  |  | 2/4 | 0/4 | scMET, number protected/number tested ([4]; 50 mg/kg, after 1 h of dosing (footnote d, row 4.0 h), 50 mg/kg): 5/6 and 5/6 ^d; TOX, number toxic/number tested ([9]; after 1 h of dosing (footnote d, row 4.0 h)): no observed TOX and 0/6 ^d; activity in mice dosed ip (seizures): no activity |
